The text below walks through data of patent EP0551434B1 (BOARD OF REGENTS THE UNIVERSITY OF TEXAS SYSTEM, priority 1990, dated 1992).

What is called IC50 is the midpoint of a concentration-inhibition curve. The term Ki denotes the dissociation constant of the complex between target and ligand, obtained from inhibition or displacement. High values mean weaker binding, low ones tighter binding.

In data set [1] the test system is MCF7. In words: Inhibition of MCF7 breast tumor cell growth in vitro (72 hour exposure, MTT tetrazolium dye assay). The format is cell-based, human. As for the experimental part:
The MCF7 cell line is a human tumor cell line. This cell line was cultured in MEM( (Eagles) media in a 5% C0^2 atmosphere with 10% fetal calf serum that had been washed twice with dextran coated charcoal to reduce endogenous estrogen levels. The media was supplemented with 1 mM sodium pyruvate and 100 µm non-essential amino acids. The cell line was screened routinely for myoplasma contamination using the GenProbe kit (Fisher). Cells were trypsinized and plated at a density of 5,000 cells/well in 96 well microtiter plates and allowed to attach and recover for 24 hours.
The media was removed by aspiration and replaced with filter sterilized drug (concentration from 10-^4 M to […]) in media. The cells were incubated for 72 hours and then stained using the MTT tetrazolium dye assay of Mosmann^36 except that after the media was removed, the blue formazan product was solubilized in 50 µl/well DMSO.

Data set [2] concerns the target T1, estrogen receptor (Sus scrofa, UniProt Q29040).
T1 sequence (Q29040 1-595): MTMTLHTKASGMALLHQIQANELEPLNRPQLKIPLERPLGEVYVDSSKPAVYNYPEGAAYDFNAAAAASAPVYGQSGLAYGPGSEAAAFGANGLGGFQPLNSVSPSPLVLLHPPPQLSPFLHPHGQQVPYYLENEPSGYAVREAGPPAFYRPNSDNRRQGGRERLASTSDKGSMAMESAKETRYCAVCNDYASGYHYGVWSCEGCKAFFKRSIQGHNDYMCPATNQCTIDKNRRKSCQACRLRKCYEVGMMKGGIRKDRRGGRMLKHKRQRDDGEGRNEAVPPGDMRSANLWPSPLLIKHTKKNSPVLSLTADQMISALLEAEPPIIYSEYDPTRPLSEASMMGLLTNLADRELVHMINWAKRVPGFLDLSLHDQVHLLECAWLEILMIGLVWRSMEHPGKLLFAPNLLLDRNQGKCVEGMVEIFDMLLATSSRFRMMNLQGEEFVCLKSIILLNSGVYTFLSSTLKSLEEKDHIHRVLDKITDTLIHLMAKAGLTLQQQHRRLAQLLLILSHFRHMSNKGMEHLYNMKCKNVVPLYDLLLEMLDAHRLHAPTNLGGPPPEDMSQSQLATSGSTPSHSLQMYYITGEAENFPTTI
As to conditions: for Ki: [^3H]estradiol 5 nM, 4°C.
Method: (§1) Briefly, uteri (90 gm) were obtained from immature domestic swine (15kg) was homogenized in Tris buffer (10 mM, pH 7.4) (1 uterus/180 ml), which contained EDTA (1.5 mM) and sodium Azide (3 mM). The homogenate was centrifuged at 100,000 g for 1 hour at 4 ° C. Uteri cytosol (contains 2% of protein from corresponding uterus tissue) were then pretreated with dextran-coated charcoal as described.^10 Protein concentrations were determined according to the method of Lowry et al.^12

In data set [3] the target is T1, estrogen receptor. In words: biochemical.
Method: as §1
The nature of data set [4]: In vivo biodistribution of N,N-diethyl-[^18F]fluoromethyltamoxifen in rats. The conditions noted are these: rat, iv; for tissue uptake at 2 h / tissue uptake at 4 h: primed with 60 μg of estradiol for 3 days. On the procedure: Four groups of rats (150-200 gm, N = 4/group) were anesthetized with ketamine (10-15 mg/rat). […]. Tissue uptake of ^18F-tracer was determined at 2 and 4 hours (h). To ascertain whether the ^18 F-tracer uptake was mediated by a receptor-process, one group of rats was given ^18F-tracer without priming with estradiol; and another group of rats was given unlabeled estradiol (30 µg/rat) together with ^18 F-tracer. […]

Where [5] appears, read: Homo sapiens, MCF7, 72 h, Table 6, 72 hour exposure, average of three experiments, read-out: IC50 Dose.
[6] abbreviates: Table 6, relative potency, IC50 ratio between tamoxifen and competitor, tamoxifen = 100.
Where [7] appears, read: IC50(M), [^3H]estradiol 5 nM, 4°C.
[8] abbreviates: IC50(uM), concentration required to decrease bound [^3H]estradiol by 50%, average of three experiments.
Setting [9] is: IC-50 estrogen receptor binding, [^3H]estradiol (5 nM).
The mark [10] stands for this setting: Homo sapiens, MCF7, text values b172, read-out: IC50 MCF7 cell inhibition (converted).
Setting [11] is: Homo sapiens, MCF7, 72 h, read-out: IC50 Dose (µM).
Setting [12] is: IC50 ratio between tamoxifen and competitor, tamoxifen printed as 1.
[13] abbreviates: comparative compounds IV and VII, average of three experiments, read-out: IC50 Dose.
Setting [14] is: comparative compounds IV and VII, relative potency, tamoxifen = 100.
[15] abbreviates: 2h(BLOCK): coinjected with estradiol (30μg).
[16] abbreviates: 2h, without prime with estradiol (control).

Read-outs that look alike come from different tables or passages of the source.

In the case of `CCN(CC)CCOc1ccc(/C(=C(/CCCO)c2ccccc2)c2ccccc2)cc1` [III (trans), N,N-diethyl-hydroxymethyltamoxifen], the IC50 turned out to be 22 µM in data set [1] (setting [5]), 7e-06 M in data set [3] (setting [7]), 7e-06 M in data set [3] (setting [8]) and 7e-06 M in data set [3] (setting [9]). Further, the RP in data set [1] (setting [6]) was determined as 50. In data set [2], this molecule gave an RBA of 4. In addition, the “RBA*” value in data set [2] is 400. The affinity in data set [3] corresponds to a Ki of 3.5 µM.

As to `CCN(CC)CCOc1ccc(/C(=C(/CCCI)c2ccccc2)c2ccccc2)cc1` [X (trans)], the IC50 was 6.3 µM in data set [1] (setting [5]); 6.3 µM in data set [1] (setting [10]); 2e-06 M in data set [3] (setting [7]); 2e-06 M in data set [3] (setting [8]); 2e-06 M in data set [3] (setting [9]). The RP in data set [1] (setting [6]) was 175. This molecule also came in with an RBA in data set [2] of 15. The “RBA*” value in data set [2] was 1,500. For the same molecule, in data set [2], the “fold higher affinity for the estrogen receptor than native tamoxifen” value was found to be 15 fold. Also, the Ki in data set [2] and in data set [3] was 1 µM throughout.

In data set [3] (setting [9]), `CCN(CC)CCOc1ccc(/C(=C(/CCCCl)c2ccccc2)c2ccccc2)cc1` [Compound XII, 1[4-(2-Diethylaminoethoxy)phenyl]-1,2-diphenyl-5-chloro-1-pentene] yielded an IC50 of 4e-07 M.

As to `CCN(CC)CCOc1ccc(/C(=C(\CCCF)c2ccccc2)c2ccccc2)cc1` [VI (Cis), N,N-diethyl-fluoromethyltamoxifen], the IC50 in data set [1] (setting [5]) and in data set [1] (setting [10]) was 4.5 µM in each case. Besides, the RP in data set [1] (setting [6]) was 244.

With `CCN(CC)CCOc1ccc(/C(=C(\CCCBr)c2ccccc2)c2ccccc2)cc1` [Compound XI (Cis), 1-[4-(2-Diethylaminoethoxy)phenyl]-1,2-diphenyl-5-bromo-1-entene], the figures for the IC50 in data set [1] (setting [11]), in data set [3] (setting [8]) and in data set [3] (setting [9]) were 0.62 µM, 8e-07 M and 8e-07 M, respectively. Further, the RP in data set [1] (setting [6]) worked out at 2355. Also, the RBA in data set [2] (setting [12]) is 37.5.

Consider `CCN(CC)CCOc1ccc(/C(=C(\CCCI)c2ccccc2)c2ccccc2)cc1` [X (cis), N,N-diethyl-iodomethyltamoxifen], for which the IC50 is 2.36 µM in data set [1] (setting [5]); 2.4 µM in data set [1] (setting [10]); 3e-06 M in data set [3] (setting [7]); 3e-06 M in data set [3] (setting [8]); 3e-06 M in data set [3] (setting [9]). Besides, in data set [1] (setting [6]), the RP is on record as 466. This molecule also displayed an RBA in data set [2] of 10. Besides, in data set [2], the “RBA*” value is 1,000. In addition, the “fold higher affinity for the estrogen receptor than native tamoxifen” value in data set [2] came out at 10 fold. In addition, the Ki in data set [2] and in data set [3] was 1.5 µM in each case.

As to `CCN(CC)CCOc1ccc(/C(=C(/CCCBr)c2ccccc2)c2ccccc2)cc1` [Compound XI (trans), 1-[4-(2-Diethylaminoethoxy)phenyl]-1,2-diphenyl-5-bromo-1-entene], the IC50 is 4.9 µM in data set [1] (setting [11]), 2e-07 M in data set [3] (setting [8]) and 2e-07 M in data set [3] (setting [9]). Besides, the RP in data set [1] (setting [6]) is on record as 298. Also, the RBA in data set [2] (setting [12]) was 150.

As for `CCN(CC)CCOc1ccc(/C(=C(/CCCF)c2ccccc2)c2ccccc2)cc1` [Compound VI (trans)], the IC50 in data set [1] (setting [5]) and in data set [1] (setting [10]) was 11.8 µM each time. Also, in data set [1] (setting [6]), the RP amounted to 93.

Take `CCN(CC)CCOc1ccc(/C(=C(/CCCCl)c2ccccc2)c2ccccc2)cc1` [Compound XII (trans), 1[4-(2-Diethylaminoethoxy)phenyl]-1,2-diphenyl-5-chloro-1-pentene]: the half-inhibitory concentration (IC50) in data set [1] (Table 6, 72 hour exposure, average of three experiments, read-out: IC50 Dose) worked out at 10 µM. For the same molecule, in data set [1] (setting [6]), the RP was 146. In addition, the RBA in data set [2] was 75.

With Fluorotamoxifen [Compound VII (Trans)], the IC50 in data set [1] (setting [13]) turned out to be 11.8 µM. This molecule returned an RP in data set [1] (setting [14]) of 93.

As to `CCN(CC)CCOc1ccc(C(=C(CCF)c2ccccc2)c2ccccc2)cc1` (single isomer, unassigned) [Compound IV (Trans), N,N-diethyl-fluorotamoxifen], the RP in data set [1] was 82.

Take Fluorotamoxifen [Compound VII (Cis)]: the IC50 in data set [1] (setting [13]) was 4.5 µM. For the same molecule, the RP in data set [1] (setting [14]) worked out at 224.

Consider `CCN(CC)CCOc1ccc(C(=C(CCF)c2ccccc2)c2ccccc2)cc1` (single isomer, unassigned) [Compound IV (Cis), N,N-diethyl-fluorotamoxifen], for which the RP in data set [1] is 268.

As to `CCN(CC)CCOc1ccc(C(=C(CCC[18F])c2ccccc2)c2ccccc2)cc1` [N,N-DIETHYL-[^18F]FLUOROMETHYLTAMOXIFEN], the tissue uptake at 2 h in data set [4] (blood, 2h, read-out: BLOOD) was determined as 0.033 ± 0.0059 %ID/g; in data set [4] (bone, 2h, read-out: BONE), 0.653 ± 0.135 %ID/g; in data set [4] (intestine, 2h, read-out: INTESTINE), 0.917 ± 0.306 %ID/g; in data set [4] (kidney, 2h, read-out: KIDNEY), 0.742 ± 0.0756 %ID/g; in data set [4] (liver, 2h, read-out: LIVER) it was 4.54 ± 0.505 %ID/g; in data set [4] (muscle, 2h, read-out: MUSCLE) it was 0.151 ± 0.0203 %ID/g. Further, the tissue uptake at 2 h in data set [4] (uterus, 2h, read-out: UTERUS) worked out at 0.426 ± 0.0177 %ID/g. In addition, the tissue uptake at 4 h worked out at 0.045 ± 0.0003 %ID/g in data set [4] (blood, read-out: BLOOD); 0.802 ± 0.0556 %ID/g in data set [4] (bone, read-out: BONE); 1.1 ± 0.599 %ID/g in data set [4] (intestine, read-out: INTESTINE); 0.796 ± 0.03 %ID/g in data set [4] (kidney, read-out: KIDNEY); 4.21 ± 0.44 %ID/g in data set [4] (liver, read-out: LIVER); 0.183 ± 0.0015 %ID/g in data set [4] (muscle, read-out: MUSCLE). In addition, in data set [4] (uterus, read-out: UTERUS), the tissue uptake at 4 h was 0.4 ± 0.0312 %ID/g. The BLOOD in data set [4] (setting [15]) was 0.048±0.0066 % OF INJECTED DOSE/GRAM OF TISSUE WEIGHT; in data set [4] (setting [16]) it was 0.033±0.0109 % OF INJECTED DOSE/GRAM OF TISSUE WEIGHT. The BONE is reported as 0.576±0.1268 % OF INJECTED DOSE/GRAM OF TISSUE WEIGHT in data set [4] (setting [15]) and 0.644±0.0656 % OF INJECTED DOSE/GRAM OF TISSUE WEIGHT in data set [4] (setting [16]). The figures for the INTESTINE in data set [4] (setting [15]) and in data set [4] (setting [16]) were 0.742±0.458 % OF INJECTED DOSE/GRAM OF TISSUE WEIGHT and 0.504±0.1784 % OF INJECTED DOSE/GRAM OF TISSUE WEIGHT, respectively. The KIDNEY in data set [4] (setting [15]) is reported as 0.742±0.1451 % OF INJECTED DOSE/GRAM OF TISSUE WEIGHT; in data set [4] (setting [16]), 0.530±0.0752 % OF INJECTED DOSE/GRAM OF TISSUE WEIGHT. Further, the results for the LIVER in data set [4] (setting [15]) and in data set [4] (setting [16]) were 4.451±1.1559 % OF INJECTED DOSE/GRAM OF TISSUE WEIGHT and 3.849±0.4069 % OF INJECTED DOSE/GRAM OF TISSUE WEIGHT, respectively. For the same molecule, the MUSCLE in data set [4] (setting [15]) is 0.145±0.0446 % OF INJECTED DOSE/GRAM OF TISSUE WEIGHT; in data set [4] (setting [16]) it was 0.109±0.0218 % OF INJECTED DOSE/GRAM OF TISSUE WEIGHT. Also, the UTERUS in data set [4] (setting [15]) is reported as 0.297±0.0356 % OF INJECTED DOSE/GRAM OF TISSUE WEIGHT; in data set [4] (setting [16]), 0.248±0.0535 % OF INJECTED DOSE/GRAM OF TISSUE WEIGHT.

Regarding `CCN(CC)CCOc1ccc(C(=C(CCCBr)c2ccccc2)c2ccccc2)cc1` [Compound XI, 1-[4-(2-Diethylaminoethoxy)phenyl]-1,2-diphenyl-5-bromo-1-entene], the IC50 was 2e-07 M in data set [3] (IC-50, text value, Example 5) and 2e-07 M in data set [3] (setting [9]).
